Data set [1] is described as follows: Human single dose crossover drug interaction study, pharmacokinetics. The format is in vivo. The method, then:
(§1) The study lasted approximately 30 days, and included a pre-enrollment evaluation of up to 2 weeks before dose administration, and three 2-day (2-night) confinement periods. The doses were separated by at least a 1 week interval. The clinical portion of the study was completed in approximately 2 months.
(§2) The VPA-985 suspension (25 mg and 50 mg powder reconstituted) was administered in 150 mL of Sprite® brand lemon-lime soda (a product of The Coca-Cola Company) followed by 100 mL of room-temperature water (250 mL of fluid total).
(§3) Areas under concentration-time curves(AUCT) (AUC) and AUC truncated at the last observed concentration (CT)AUCT) were determined by using the linear/log trapezoidal method. Statistical comparisons were made using by an analysis of variance (ANOVA). Confidence limits (90%) for pharmacokinetic parameters were constructed on a log scale using the two one-sided tests procedure. An interaction was judged to be significant if a 35% difference was detected between either single agent and the two drugs administered concomitantly.

Data set [2] concerns renal function in anesthetized rats. The following applies: for Na+ excretion / free water clearance / urine flow rate / urine osmolality: anesthetized rats; for glomerular filtration rate (GFR): rat, in vivo. How it is done: NaCl reabsorption in the thick ascending limb of the Loop of Henle (TALH) creates free water that is reabsorbed in the collecting duct in the presence of vasopressin. […] Either V (3 mg/kg), F (5 mg/kg), both V and F (V/F) or the vehicles were administered intraduodenally.

Another data set relates to healthy men. The data set is described as follows: Human single dose crossover drug interaction study, pharmacodynamics (urine flow, electrolytes). The format is in vivo. The settings on record: for mean urine volume: 0 to 4 h interval, single oral doses VPA-985 75 mg; for mean urine volume / peak urine flow: furosemide 40 mg, or both; for peak urine flow: single oral doses: VPA-985 75 mg. How it is done: as §1, §2, §3

Setting [3] is: VPA-985 75 mg administered with furosemide 40 mg.
The mark [4] stands for this setting: after intraduodenal administration (V 3 mg/kg, F 5 mg/kg).
[5] abbreviates: baseline, before compound administration.
[6] abbreviates: after coadministration with VPA-985 75 mg.

Structures are written as SMILES. Like-named read-outs stand apart in the source and are kept apart here.

The AUC is concentration integrated over time. Low values mean less exposure, high ones more exposure. Regarding `Cc1ccc(F)cc1C(=O)Nc1ccc(C(=O)N2Cc3cccn3Cc3ccccc32)c(Cl)c1` [VPA-985, N-[4-(5H-pyrrolo[2,1-c][1,4]benzodiazepin-10(11H)ylcarbonyl)-3-chlorophenyl]-5-fluoro-2-methyl-benzamide], in data set [1] (setting [3]), the “AUCs of VPA-985, compared to VPA-985 alone” value is recorded as “no differences” and the “Cmax of VPA-985, compared to VPA-985 alone” value is given as “no differences”. This molecule also registered an exposure (AUC) in data set [1] (male, human, in vivo, single oral dose VPA-985 75-mg suspension alone, healthy men) of 968 ng·h/mL. Moreover, the Cmax in data set [1] (male, human, in vivo, single oral dose VPA-985 75-mg suspension alone, healthy men, read-out: mean peak concentration (Cmax) of VPA-985) came out at 617 ng/mL. In data set [1] (male, human, in vivo, single oral dose VPA-985 75-mg suspension alone, healthy men, read-out: mean time of peak concentration (tmax) of VPA-985), the Tmax is less than 1 h. Besides, in data set [2] (setting [4]), the “Na+ excretion” value is on record as 0.67±0.34 μEq/min, the free water clearance was -6.96 ± 5.17 µL/min, the urine flow rate is 19.51 ± 3.80 µL/min and the urine osmolality turned out to be 571±145 mOsm/kg. Moreover, in data set [2] (setting [5]), the “Na+ excretion” value was 0.10±0.02 μEq/min, the free water clearance is -17.31 ± 1.84 µL/min, the urine flow rate came out at 5.26 ± 1.13 µL/min and the urine osmolality stood at 1456±166 mOsm/kg. The glomerular filtration rate (GFR) in data set [2] is 2.04 ± 0.15 mL/min. This molecule had a mean urine volume in the data set on healthy men of 1157 mL. The “increase in mean serum sodium” value with healthy men (0 to 4 hours after the dose) is on record as 2 mmol/L. Besides, the “0 to 4 h urinary excretion of sodium, potassium, chloride and magnesium” value in the data set with healthy men (VPA-985 alone compared with VPA-985 and furosemide administered concomitantly) is recorded as “significantly less”. In addition, the “tmax of peak effect in urine flow” value in the data set on healthy men (after administration of single doses, healthy men) is on record as “approximately 1.5 h”. The “effect on serum potassium” value with healthy men (single oral dose VPA-985 75 mg alone) was “did not alter”. In addition, the peak urine flow in the data set with healthy men (healthy men) amounted to 8.4 mL/min.

In the case of `NS(=O)(=O)c1cc(C(=O)O)c(NCc2ccco2)cc1Cl` [furosemide, reference compound], in data set [1] (setting [6]), the “CLr of furosemide, versus furosemide alone” value was “no difference”. Besides, the “amount of furosemide recovered from urine (Ut), versus furosemide alone” value in data set [1] (setting [6]) is given as “no difference”. Moreover, the urine flow rate in data set [2] (setting [4]) is 17.02 ± 4.86 µL/min; in data set [2] (setting [5]), 3.74 ± 0.18 µL/min. For the same molecule, the urine osmolality in data set [2] (setting [4]) was 699±69 mOsm/kg; in data set [2] (setting [5]), 1515±96 mOsm/kg. In data set [2], this molecule showed a glomerular filtration rate (GFR) of 1.87 ± 0.15 mL/min. In the data set on healthy men, the mean urine volume stood at 1524 mL. Further, the serum potassium in the data set on healthy men (at 0 h) is 4.2 mmol/L; in the data set with healthy men (at 4 hours after the dose) it was 3.9 mmol/L. Further, the peak urine flow with healthy men (healthy men) turned out to be 9.3 mL/min.

These data come from patent publication US6656931B2, “Vasopressin antagonist and diuretic combination” (Wyeth Holdings Corporation, priority 1999, dated 2003).
